Measurements taken from patent US20060178374A1, “Aminoheteroaryl compounds as protein kinase inhibitors” (AGOURON PHARMACEUTICALS, INC., priority 2004, published 2006).

Each molecule was assayed against HGFR (c-Met) (Homo sapiens, UniProt P08581) (assay: HGFR Continuous-Coupled Spectrophotometric Assay). Details: HGFR enzyme 50 nM, Met-2 peptide substrate, 37° C.
Assay type: biochemical
Description: The general procedure is as follows: compounds and kinase assay reagents are introduced into test wells. The assay is initiated by addition of the kinase enzyme. Enzyme inhibitors reduce the measured activity of the enzyme.
In the continuous-coupled spectrophotometric assay the time-dependent production of ADP by the kinase is determined by analysis of the rate of consumption of NADH by measurement of the decrease in absorbance at 340 nm. As the PK produces ADP it is re-converted to ATP by reaction with phosphoenol pyruvate and pyruvate kinase. Pyruvate is also produced in this reaction. Pyruvate is subsequently converted to lactate by reaction with lactate dehydrogenase, which simultaneously converts NADH to NAD.
HGFR Continuous-Coupled Spectrophotometric Assay
This assay analyzes the tyrosine kinase activity of HGFR on the Met-2 substrate peptide, a peptide derived from the activation loop of the HGFR.
• 1. […] Dissolve up in 200 mM HEPES, pH 7.5 at 10 mM stock. • 3. 1 M PEP (phospho-enol-pyruvate) in 200 mM HEPES, pH 7.5 • 4. 100 mM NADH (B-Nicotinamide Adenine Dinucleotide, Reduced Form) in 200 mM HEPES, pH 7.5 • 5. 4 M MgCl2 (Magnesium Chloride) in ddH2O 6. 1 M DTT (Dithiothreitol) in 200 mM HEPES, pH 7.5 • 7. 15 Units/mL LDH (Lactic Dehydrogenase) • 8. 15 Units/mL PK (Pyruvate Kinase) • 9. 5M NaCl dissolved in ddH2O • 10. Tween-20 (Protein Grade) 10% Solution • 11. 1 M HEPES buffer: (N-[2-Hydroxethyl]piperazine-N-[2-ethanesulfonic acid]) Sodium Salt. Dissolve in ddH2O, adjust pH to 7.5, bring volume to 1 L. Filter at 0.1 μm. • 12. […] 100% DMSO (SIGMA) • 14. […] Beckman DU-650 w/ micro cell holders • 18. Beckman 4-position micro cell cuvette Procedure:
Prep Dilution Buffer (DB) for Enzyme (For 30 mL prep) • 1. DB final concentration is 2 mM DTT, 25 mM NaCl2, 5 mM MgCl2, 0.01% Tween-20, and 50 mM HEPES buffer, pH 7.5. • 2. Make up 50 mM HEPES by adding 1.5 mL 1 M HEPES into 28.1 mL of ddH2O. Add rest of the reagents. Into 50 mL conical vial, add 60 μL of 1M DTT, 150 μL 5M NaCl2, 150 μL 1M MgCl2, and 30 μL of 10% Tween-20 to give total volume of 30 mL. • 3. Vortex for 5-10 seconds. • 4. Aliquot out DB at 1 mL/tube and label tubes as “DB HGFR” • 5. Note: This can be prepared and stored ahead of time. • 6. Freeze un-used aliquots in microcentrifuge tubes at −20° C. freezer.
Prep Compounds • 1. For compound dilution plate, add 4 μL of 10 mM stock into column 1 of plate, and bring volume to 100 μL with 100% DMSO. • 2. Set up the Precision 2000 dilution method. A final concentration of 200 μM compound in 50% DMSO, 100 mM HEPES (1:2 serial dilution).
Prep Coupled Enzymatic Buffer:
1. Final concentration in assay:
• 2. For a 10 mL reaction buffer add 10 μL of 1M PEP, 33 μL of 100 mM NADH, 50 μL of 4M MgCl2, 20 μL of 1M DTT, 6 μL of 500 mM ATP, and […] of 10 mM Met-2 peptide into 100 mM HEPES buffer pH 7.5 and vortex/mix. • 3. Add coupling enzymes, LDH and PK, into reaction mix. Mix by gentle inversion.
1. Spectrophotometer settings:
• 2. Add 85 μL of CE reaction mix into each well of assay plate. • 3. Add 5 μL of diluted compound into a well of the assay plate. • 4. Add 5 μL of 50% DMSO for negative control into last column of assay plate. • 5. Mix with multi-channel pipettor or orbital shaker. • 6. Pre-incubate for 10 minutes at 37° C. • 7. Add 10 μL of 500 nM HGFR to each well of assay plate; the final HGFR concentration is 50 nM in a total final volume of 100 μL. • 8. Measure activity for 10 minutes at λ=340 nm and 37° C.
Ki data were obtained using the HGFR Continuous-Coupled Spectrophotometric Assay, and IC50 data were obtained using the Cellular HGFR Autophosphorylation Assay, both of which are described above.

Sequence of HGFR (c-Met) (P08581 974-1390): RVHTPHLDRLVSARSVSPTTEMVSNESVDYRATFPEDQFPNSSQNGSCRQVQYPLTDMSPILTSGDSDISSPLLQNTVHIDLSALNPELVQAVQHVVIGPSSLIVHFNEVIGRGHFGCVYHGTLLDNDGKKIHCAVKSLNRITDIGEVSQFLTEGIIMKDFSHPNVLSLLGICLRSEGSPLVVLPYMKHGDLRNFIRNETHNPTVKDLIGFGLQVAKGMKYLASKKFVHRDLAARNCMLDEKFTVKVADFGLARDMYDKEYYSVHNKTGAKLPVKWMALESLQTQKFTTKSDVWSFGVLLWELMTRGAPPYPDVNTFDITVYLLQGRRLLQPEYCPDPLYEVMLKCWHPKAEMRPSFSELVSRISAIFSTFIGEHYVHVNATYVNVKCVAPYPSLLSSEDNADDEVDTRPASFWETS

| Ki [nM] | Structure (SMILES) |
| --- | --- |
| 79 | CC(Oc1cc(-c2ccc(F)c(C(=O)N3C[C@@H](C)N[C@@H](C)C3)c2)cnc1N)c1c(Cl)ccc(F)c1Cl (stereo partly drawn) [Example 54, (5-{6-Amino-5-[1-(2,6-dichloro-3-fluoro-phenyl)-ethoxy]-pyridin-3-yl}-2-fluoro-phenyl)-(dimethyl-piperazin-1-yl)-methanone] |
| 578 | CC(Oc1cc(-c2cn(CC(=O)OC(C)(C)C)cn2)cnc1N)c1c(Cl)ccc(F)c1Cl (stereo not drawn) [Example 58, (4-{6-Amino-5-[1-(2,6-dichloro-3-fluoro-phenyl)-ethoxy]-pyridin-3-yl}-imidazol-1-yl)-acetic acid tert-butyl ester] |
| 35.3 | CC(Oc1cc(-c2ccc(N3CCN(C)CC3)nc2)cnc1N)c1c(Cl)ccc(F)c1Cl (stereo not drawn) [Example 63, 5-[1-(2,6-Dichloro-3-fluoro-phenyl)-ethoxy]-6′-(4-methyl-piperazin-1-yl)-[3,3′]bipyridinyl-6-ylamine] |
| 19.3 | CC(Oc1cc(-c2ccc(N3CCC(O)CC3)nc2)cnc1N)c1c(Cl)ccc(F)c1Cl (stereo not drawn) [Example 64, 6″-Amino-5″-[1-(2,6-dichloro-3-fluoro-phenyl)-ethoxy]-3,4,5,6-tetrahydro-2H-[1,2′;5′,3″]terpyridin-4-ol] |
| 43.5 | CC(Oc1cc(-c2ccc(N3CCC(CO)CC3)nc2)cnc1N)c1c(Cl)ccc(F)c1Cl (stereo not drawn) [Example 65, {6″-Amino-5″-[1-(2,6-dichloro-3-fluoro-phenyl)-ethoxy]-3,4,5,6-tetrahydro-2H-[1,2′;5′,3″]terpyridin-4-yl}-methanol] |
| 32.7 | CC(Oc1cc(-c2ccc(N3CCN(CCO)CC3)nc2)cnc1N)c1c(Cl)ccc(F)c1Cl (stereo not drawn) [Example 66, 2-(4-{6′-Amino-5′-[1-(2,6-dichloro-3-fluoro-phenyl)-ethoxy]-[3,3′]bipyridinyl-6-yl}-piperazin-1-yl)-ethanol] |
| 68.1 | CCN(CC)CCC(=O)NCc1cccc(-c2cnc(N)c(OC(C)c3c(Cl)ccc(F)c3Cl)c2)c1 (stereo not drawn) [Example 68, N-(3-{6-Amino-5-[1-(2,6-dichloro-3-fluoro-phenyl)-ethoxy]-pyridin-3-yl}-benzyl)-3-diethylamino-propionamide] |
| 39 | CC(Oc1cc(-c2ccc(N3CCN(CCN(C)C)CC3)nc2)cnc1N)c1c(Cl)ccc(F)c1Cl (stereo not drawn) [Example 69, 5-[1-(2,6-Dichloro-3-fluoro-phenyl)-ethoxy]-6′-[4-(2-dimethylamino-ethyl)-piperazin-1-yl]-[3,3′]bipyridinyl-6-ylamine] |
| 52 | CC(Oc1cc(-c2cccc(CNC(=O)CN(C)C)c2)cnc1N)c1c(Cl)ccc(F)c1Cl (stereo not drawn) [Example 70, N-(3-{6-Amino-5-[1-(2,6-dichloro-3-fluoro-phenyl)-ethoxy]-pyridin-3-yl}-benzyl)-2-dimethylamino-acetamide] |
| 49 | CC(Oc1cc(-c2cccc(CNC(=O)CCN)c2)cnc1N)c1c(Cl)ccc(F)c1Cl (stereo not drawn) [Example 72, 3-Amino-N-(3-{6-amino-5-[1-(2,6-dichloro-3-fluoro-phenyl)-ethoxy]-pyridin-3-yl}-benzyl)-propionamide] |

The next lines start with the molecule.

| Structure (SMILES) | Ki [nM] |
| --- | --- |
| CC(Oc1cc(-c2ccc(C(=O)N3CCC(N4CCCC4)CC3)cc2)cnc1N)c1ccccc1 (stereo not drawn) [Example 53, {4-[6-Amino-5-(1-phenyl-ethoxy)-pyridin-3-yl]-phenyl}-(4-pyrrolidin-1-yl-piperidin-1-yl)-methanone] | 11000 |
| CC(Oc1cc(-c2ccc(F)c(C(=O)N3CCC(N4CCCC4)CC3)c2)cnc1N)c1c(Cl)ccc(F)c1Cl (stereo not drawn) [Example 55, (5-{6-Amino-5-[1-(2,6-dichloro-3-fluoro-phenyl)-ethoxy]-pyridin-3-yl}-2-fluoro-phenyl)-(4-pyrrolidin-1-yl-piperidin-1-yl)-methanone] | 102 |
| Cc1ccc(F)c(C(C)Oc2cc(-c3ccc(C(=O)N4CCC(N5CCCC5)CC4)cc3)cnc2N)c1Cl (stereo not drawn) [Example 56, (4-{6-Amino-5-[1-(2-chloro-6-fluoro-3-methyl-phenyl)-ethoxy]-pyridin-3-yl}-phenyl)-(4-pyrrolidin-1-yl-piperidin-1-yl)-methanone] | 173 |
| CC(Oc1cc(-c2cn(CCN3CCOCC3)cn2)cnc1N)c1c(Cl)ccc(F)c1Cl (stereo not drawn) [Example 59, 3-[1-(2,6-Dichloro-3-fluoro-phenyl)-ethoxy]-5-[1-(2-morpholin-4-yl-ethyl)-1H-imidazol-4-yl]-pyridin-2-ylamine] | 155 |
| CC(Oc1cc(-c2cn(CC(=O)NCCN3CCCC3)cn2)cnc1N)c1c(Cl)ccc(F)c1Cl (stereo not drawn) [Example 60, 2-(4-{6-Amino-5-[1-(2,6-dichloro-3-fluoro-phenyl)-ethoxy]-pyridin-3-yl}-imidazol-1-yl)-N-(2-pyrrolidin-1-yl-ethyl)-acetamide] | 599 |
| CC(Oc1cc(-c2ccc(N3CCOCC3)nc2)cnc1N)c1c(Cl)ccc(F)c1Cl (stereo not drawn) [Example 61, 5-[1-(2,6-Dichloro-3-fluoro-phenyl)-ethoxy]-6′-morpholin-4-yl-[3,3′]bipyridinyl-6-ylamine] | 72 |
| CC(Oc1cc(-c2ccc(N3CCC(N4CCCC4)CC3)nc2)cnc1N)c1c(Cl)ccc(F)c1Cl (stereo not drawn) [Example 67, 5″-[1-(2,6-Dichloro-3-fluoro-phenyl)-ethoxy]-4-pyrrolidin-1-yl-3,4,5,6-tetrahydro-2H-[1,2′;5′,3″]terpyridin-6″-ylamine] | 23.1 |
| CC(Oc1cc(-c2ccc(OC3CCNCC3)nc2)cnc1N)c1c(Cl)ccc(F)c1Cl (stereo not drawn) [Example 71, 5-[1-(2,6-Dichloro-3-fluoro-phenyl)-ethoxy]-6′-(piperidin-4-yloxy)-[3,3′]bipyridinyl-6-ylamine] | 27 |
| CC(Oc1cc(-c2ccc(N3CCNCC3)nc2)cnc1N)c1c(Cl)ccc(F)c1Cl (stereo not drawn) [Example 73, 5-[1-(2,6-Dichloro-3-fluoro-phenyl)-ethoxy]-6′-piperazin-1-yl-[3,3′]bipyridinyl-6-ylamine] | 21 |
| CC(Oc1cc(-c2ccc(OCCC3CCNCC3)nc2)cnc1N)c1c(Cl)ccc(F)c1Cl (stereo not drawn) [Example 74, 5-[1-(2,6-Dichloro-3-fluoro-phenyl)-ethoxy]-6′-(2-piperidin-4-yl-ethoxy)-[3,3′]bipyridinyl-6-ylamine] | 47 |
| CC(Oc1cc(-c2ccc(NCCN3CCCC3)nc2)cnc1N)c1c(Cl)ccc(F)c1Cl (stereo not drawn) [Example 75, 5-[1-(2,6-Dichloro-3-fluoro-phenyl)-ethoxy]-N6′-(2-pyrrolidin-1-yl-ethyl)-[3,3′]bipyridinyl-6,6′-diamine] | 28 |
| CC(Oc1cc(-c2ccc(NC3CCNCC3)nc2)cnc1N)c1c(Cl)ccc(F)c1Cl (stereo not drawn) [Example 76, 5-[1-(2,6-Dichloro-3-fluoro-phenyl)-ethoxy]-N6′-piperidin-4-yl-[3,3′]bipyridinyl-6,6′-diamine] | 22 |
| CC(Oc1cc(-c2cn(C3CCNCC3)cn2)cnc1N)c1c(Cl)ccc(F)c1Cl (stereo not drawn) [Example 77, 3-[1-(2,6-Dichloro-3-fluoro-phenyl)-ethoxy]-5-(1-piperidin-4-yl-1H-imidazol-4-yl)-pyridin-2-ylamine] | 38 |
| CCOc1ccc(Cl)c(C(C)Oc2cc(-c3ccc(C(=O)N4CCNCC4)cc3)cnc2N)c1Cl (stereo not drawn) [Example 78, (4-{6-Amino-5-[1-(2,6-dichloro-3-ethoxy-phenyl)-ethoxy]-pyridin-3-yl}-phenyl)-piperazin-1-yl-methanone] | 57 |
